Results on 21 compounds are retold here after patent US20230021448A1, “COMPOUNDS AND COMPOSITIONS FOR TREATING CONDITIONS ASSOCIATED WITH STING ACTIVITY” (IFM Due, Inc., priority 2019, published 2023).

Usually EC50 stands for the midpoint of the concentration-response curve.

Each structure is given as a SMILES string.

T1 sequence (Q86WV6 whole entry R71H/G230A/H232R/R293Q): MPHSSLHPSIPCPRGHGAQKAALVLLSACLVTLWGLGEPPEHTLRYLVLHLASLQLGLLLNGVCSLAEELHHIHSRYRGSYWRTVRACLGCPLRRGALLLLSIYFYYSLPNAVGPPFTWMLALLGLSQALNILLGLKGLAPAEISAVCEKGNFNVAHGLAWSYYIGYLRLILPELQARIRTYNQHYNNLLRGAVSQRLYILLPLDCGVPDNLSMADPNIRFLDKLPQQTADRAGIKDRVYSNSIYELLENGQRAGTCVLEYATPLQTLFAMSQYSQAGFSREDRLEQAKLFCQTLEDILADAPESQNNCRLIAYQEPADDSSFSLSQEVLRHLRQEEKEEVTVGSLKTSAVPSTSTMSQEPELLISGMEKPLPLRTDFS

The experiment has as its target T1, STING (Homo sapiens, UniProt Q86WV6, G230A/H232R/R293Q/R71H).
T1 construct: host or cells: THP1-Dual KO-IFNAR2 cells
The experiment is described as follows: STING reporter assay: luciferase reporter activity in THP1-Dual KO-IFNAR2 cells stimulated with 2'3'cGAMP. It is filed as cell-based. Conditions: 2′3′cGAMP 15 μM final, 24h, read-out: hSTING: EC50. The procedure, abridged: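 THP1-Dual KO-IFNAR2 cells (2×10E6 cells/mL) incubated with compounds at 0.0017-100 μM final plus Lipofectamine-transfected 2′3′cGAMP (15 μM final), 24 h at 37 °C, 5% CO2. Luciferase in supernatant read by QUANTI-Luc luminescence; EC50 derived.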
(Reporter assays use an easily measured gene product as a stand-in for the process of interest.)
As for `O=C(Nc1c[nH]c2cc(F)c(F)cc12)C(=O)N[C@@H]1CCN(c2ccccc2)C1` [Compound 128], the EC50 fell in the range of 1000 to 5000 nM.

On to `O=C(Nc1ccc(OCC(F)(F)F)nc1)C(=O)Nc1c[nH]c2cc(F)c(F)cc12` [Compound 157, N1-(5,6-difluoro-1H-indol-3-yl)-N2-(6-(2,2,2-trifluoroethoxy)pyridin-3-yl) oxalamide], for which the EC50 was in the range of 200 to 1000 nM.

On to `O=C(Nc1c[nH]c2cc(F)c(F)cc12)C(=O)NC1CCC(O)(C(F)(F)F)CC1` (stereo not drawn) [Compound 300, N-(5,6-difluoro-1H-indol-3-yl)-N′-[4-hydroxy-4-(trifluoromethyl)cyclohexyl] ethanediamide], for which the EC50 lay in the range of 5000 to 100000 nM.

For `O=C(NCc1cncc(C(F)(F)F)c1)C(=O)Nc1c[nH]c2cc(F)c(F)cc12` [Compound 343], the half-maximal effective concentration (EC50) lay within 200 to 1000 nM.

As for `O=C(Nc1ccc(-n2cncn2)c(Cl)c1)C(=O)Nc1c[nH]c2cc(F)c(F)cc12` [Compound 265, N′-[3-chloro-4-(1H-1,2,4-triazol-1-yl)phenyl]-N-(5,6-difluoro-1H-indol-3-yl)ethanediamide], the EC50 fell in the range of 1000 to 5000 nM.

In the case of `O=C(NCc1cccc(C(F)(F)F)n1)C(=O)Nc1c[nH]c2cc(F)c(F)cc12` [Compound 338], the EC50 is 200 to 1000 nM.

For `O=C(Nc1c[nH]c2cc(F)c(F)cc12)C(=O)NC1CC(Oc2ccc(C(F)(F)F)cc2)C1` (stereo not drawn) [Compound 218], the EC50 was 200 to 1000 nM.

As for `O=C(Nc1c[nH]c2cc(F)c(F)cc12)C(=O)N1CCN(Cc2ccc(C(F)(F)F)cc2)CC1` [Compound 253], the half-maximal effective concentration (EC50) was in the range of 200 to 1000 nM.

For `O=C(Nc1cccc(C(F)(F)F)c1)C(=O)Nc1c[nH]c2cc(F)c(F)cc12` [Compound 102], the EC50 was 200 to 1000 nM.

Take `O=C(Nc1c[nH]c2cc(F)c(F)cc12)C(=O)N[C@H]1CC[C@@H](Oc2ccc(C(F)(F)F)cc2)CC1` [Compound 249]: the 50% effective concentration (EC50) lay in the range of 1000 to 5000 nM.

`O=C(NCC(=O)N1CCc2ccccc21)C(=O)Nc1c[nH]c2cc(F)c(F)cc12` [Compound 309, N-(5,6-difluoro-1H-indol-3-yl)-N′-[2-(2,3-dihydro-1H-indol-1-yl)-2-oxoethyl] ethanediamide]: the EC50 is 200 to 1000 nM.

On to `CN(CCCNC(=O)C(=O)Nc1c[nH]c2cc(F)c(F)cc12)c1ccccc1` [Compound 307, N-(5,6-difluoro-1H-indol-3-yl)-N′-{3-[methyl(phenyl)amino]propyl}ethanediamide], for which the EC50 was 200 to 1000 nM.

As to `O=C(Nc1ccc(C2CCC(F)(F)CC2)nc1)C(=O)Nc1c[nH]c2cc(F)c(F)cc12` [Compound 175], the EC50 is 200 to 1000 nM.

`Cc1ccc(O[C@H]2C[C@H](NC(=O)C(=O)Nc3c[nH]c4cc(F)c(F)cc34)C2)cn1` [Compound 196]: the EC50 was in the range of 200 to 1000 nM.

For the compound `O=C(NCCc1ccc(C(F)(F)F)c(Cl)c1)C(=O)Nc1c[nH]c2cc(F)c(F)cc12` [Compound 143], the EC50 lay in the range of 200 to 1000 nM.

As for `O=C(Nc1c[nH]c2ccc(Cl)cc12)C(=O)N[C@H]1CC[C@H](Oc2ccc(C(F)(F)F)cc2)CC1` [Compound 213, N-(5-chloro-1H-indol-3-yl)-N′-(trans-4-(4-(trifluoromethyl)phenoxy)cyclohexyl)oxalamide], the EC50 fell in the range of 40 to 200 nM.

Consider `O=C(NCc1ccnc(N2CCCCC2)c1)C(=O)Nc1c[nH]c2cc(F)c(F)cc12` [Compound 324], for which the EC50 lay within 200 to 1000 nM.

Turning to `O=C(NCCOc1cncc(C(F)(F)F)c1)C(=O)Nc1c[nH]c2cc(F)c(F)cc12` [Compound 325], the EC50 was in the range of 200 to 1000 nM.

In the case of `O=C(NCc1ccc(Cl)c(C(F)(F)F)c1)C(=O)Nc1c[nH]c2cc(F)c(F)cc12` [Compound 164, N1-(4-chloro-3-(trifluoromethyl)benzyl)-N2-(5,6-difluoro-1H-indol-3-yl)oxalamide], the EC50 lay in the range of 40 to 200 nM.

On to `O=C(NCc1ccnc(C(F)(F)F)c1)C(=O)Nc1c[nH]c2cc(F)c(F)cc12` [Compound 342], for which the 50% effective concentration (EC50) lay in the range of 200 to 1000 nM.

`O=C(Nc1ccc(C(F)(F)F)c(Cl)c1)C(=O)Nc1c[nH]c2cc(F)c(F)cc12` [Compound 181]: the EC50 was in the range of 200 to 1000 nM.
